In the CheMixHub ionic liquid set:

Experiment: xn = mol fraction of the nth substance listed

CCCCCC[n+]1ccn(C)c1.O=S(=O)([N-]S(=O)(=O)C(F)(F)F)C(F)(F)F + ClC(Cl)Cl
electrical conductivity [S/m], 101 kPa
Conditions	x1 = 0.196	x1 = 0.335	x1 = 0.956	x1 = 0.97	x2 = 0.006
288.5 K	0.462	–	–	0.146	–
318.5 K	–	0.845	0.469	–	0.459

NCCO + CCCC[n+]1ccn(C)c1.F[P-](F)(F)(F)(F)F
101 kPa, x1 = 1
Conditions	electrical conductivity [S/m]	viscosity [mPa·s]
288.15 K	0.00163	31
293.15 K	0.00189	23.7
298.15 K	0.00227	–
303.15 K	0.00272	–
308.15 K	0.00321	–
313.15 K	0.00357	–
318.15 K	0.00622	8.1
323.15 K	0.00689	–

CCCC[n+]1ccn(C)c1.N#C[C-](C#N)C#N + O
viscosity [mPa·s], 101 kPa
Conditions	278.15 K	288.15 K	298.15 K	308.15 K	318.15 K	328.15 K	333.15 K	338.15 K	348.15 K	358.15 K
x2 = 0	76.6	43.55	27.32	18.45	13.21	9.91	–	7.71	6.18	5.08
x2 = 0.01382	–	–	–	–	–	9.9	8.72	–	6.245	–
x2 = 0.0458	67.8	39.3	25.05	17.19	12.48	9.46	–	7.43	6.01	4.966
x2 = 0.1008	–	31.74	20.8	14.54	10.68	8.18	–	6.47	5.261	4.375
x2 = 0.175	47.79	28.85	19.03	13.37	9.89	7.62	–	6.06	4.944	4.125
x2 = 0.2116	44.3	26.98	17.9	12.67	9.43	7.3	–	5.83	4.783	4.001
x2 = 0.2885	37.68	23.28	15.62	11.15	8.36	6.51	–	5.232	4.309	3.618
x2 = 0.4273	28.9	18.24	12.43	8.99	6.81	5.351	–	4.329	3.586	3.028
x2 = 0.5034	25.05	15.99	11	8.01	6.106	4.82	–	3.916	3.273	2.748
x2 = 0.5607	21.78	14.03	9.71	7.1	5.428	4.295	–	3.496	2.912	2.472

CCCC[n+]1ccn(C)c1.COS(=O)(=O)[O-] + O
viscosity [mPa·s], 101 kPa
Conditions	283.15 K	293.15 K	303.15 K	313.15 K	323.15 K	333.15 K	343.15 K
x2 = 0.0004	527	273.8	153.5	93.1	60.24	41.07	29.3
x2 = 0.0999	432	229.3	132.8	82.6	54.53	37.8	27.72
x2 = 0.194	356.2	193.6	114.5	72.55	48.65	34.25	25.14
x2 = 0.3979	182.1	104.3	64.51	42.47	29.48	21.44	16.88
x2 = 0.6025	63.13	38.93	25.65	17.84	12.97	9.806	8.289
x2 = 0.8005	19.72	13.01	9.056	6.609	5.006	3.929	3.175
x2 = 0.8993	8.179	5.646	4.113	3.137	2.483	2.029	1.707

CC[S+](CC)CCOCCOCCOCC[S+](CC)CC.N#C[N-]C#N.N#C[N-]C#N + CC[n+]1ccn(C)c1.N#C[N-]C#N + O=S(=O)([N-]S(=O)(=O)C(F)(F)F)C(F)(F)F.[Li+]
100 kPa, x1 = 0.2479, x2 = 0.6613
Conditions	electrical conductivity [S/m]
298 K	0.454
303 K	0.548
313 K	0.811
323 K	1.09
333 K	1.4
343 K	1.78

OCCCCCO + C[N+](C)(C)CCO.O=S(=O)([N-]S(=O)(=O)C(F)(F)F)C(F)(F)F
Conditions	viscosity [mPa·s]
333.15 K, 101 kPa, x1 = 1	20.3

CC[n+]1ccn(C)c1.COS(=O)(=O)[O-] + CS(C)=O
viscosity [mPa·s], 100 kPa
Conditions	298.15 K	303.15 K	308.15 K	313.15 K
x1 = 0.0164	4.16	4.01	3.89	3.67
x1 = 0.0398	7.35	6.81	6.27	5.93
x1 = 0.0602	9.97	9.2	8.55	8.08
x1 = 0.0941	14.18	12.83	12.06	11.28
x1 = 0.1236	17.62	15.85	14.5	13.71
x1 = 0.1519	20.91	18.59	16.92	16.1
x1 = 0.2143	27.4	24.2	21.94	20.73
x1 = 0.2927	34.95	30.43	27.28	25.55
x1 = 0.3737	41.96	36.24	32.09	29.71
x1 = 0.4429	47.4	40.66	35.66	32.71
x1 = 0.5298	53.6	45.69	39.54	35.84
x1 = 0.6072	58.8	49.5	42.55	38.23
x1 = 0.6927	64.3	53.7	45.77	40.24
x1 = 0.7486	67.7	56.3	47.7	41.57
x1 = 0.8263	72.7	60	50.3	43.32
x1 = 0.8944	77	63.2	52.7	44.81
x1 = 0.9396	80.1	65.5	54.3	45.96
x1 = 0.9755	82.5	67.4	55.7	46.87
x1 = 1	84.3	68.7	56.7	47.6

CCCCCCCCCCCCCCCC[P+](CCCC)(CCCC)CCCC.[Br-] + O
300 K, 101 kPa
Conditions	electrical conductivity [S/m]
x2 = 0.201	0.00035
x2 = 0.302	0.00035
x2 = 0.402	0.00035
x2 = 0.502	0.00035
